Reference: patent US10766878B2, “Sulfonylcycloalkyl carboxamide compounds” (Genentech, Inc., priority 2017, dated 2020)
Blank lines part the entries; values can stand above or below the compound they belong to.

Target: human TRPA1 (Homo sapiens (Human), UniProt O75762)
Assay: hTRPA1 CHO Ca2+ AUC EVO (IC50); FLIPR Tetra block of cinnamaldehyde induced calcium influx
Type: cell-based
Details: CHO cells expressing TRPA1, 75 uM cinnamaldehyde agonist
Method: IC50 values ([…]) of compounds on the human and rat TRPA1 channels were determined using a FLIPR Tetra instrument. CHO cells expressing TRPA1 were plated into 384-well plates, incubated overnight at 37 C, and loaded with BD calcium indicator dye for 1 hr at 37° C. followed by 15 minutes. at room temperature. The assay buffer was Hank's Balanced Salt Solution (HBSS) containing 20 mM HEPES (pH readjusted to 7.4) along with 0.02% BSA.
Following dye load and plate cool down, compounds were added to the cells using FLIPR Tetra. Plates were then incubated with compounds for 20 minutes at room temperature prior to adding agonist. Following this incubation, ˜EC80 concentration of cinnamaldehyde (75 uM for human TRPA1 and 45 uM for rat TRPA1) was added to active the channels and block of cinnamaldehyde induced calcium influx was measured.
IC50 values were fit with a standard Hill function, keeping the Hill coefficient (n) fixed to 1.5. Fixing the Hill coefficient will generally reduce variability of the IC50 determination. The IC50 values were individually examined to make sure the MIN and MAX points were set correctly prior to validation of the results.

Chain of human TRPA1 (O75762 whole entry): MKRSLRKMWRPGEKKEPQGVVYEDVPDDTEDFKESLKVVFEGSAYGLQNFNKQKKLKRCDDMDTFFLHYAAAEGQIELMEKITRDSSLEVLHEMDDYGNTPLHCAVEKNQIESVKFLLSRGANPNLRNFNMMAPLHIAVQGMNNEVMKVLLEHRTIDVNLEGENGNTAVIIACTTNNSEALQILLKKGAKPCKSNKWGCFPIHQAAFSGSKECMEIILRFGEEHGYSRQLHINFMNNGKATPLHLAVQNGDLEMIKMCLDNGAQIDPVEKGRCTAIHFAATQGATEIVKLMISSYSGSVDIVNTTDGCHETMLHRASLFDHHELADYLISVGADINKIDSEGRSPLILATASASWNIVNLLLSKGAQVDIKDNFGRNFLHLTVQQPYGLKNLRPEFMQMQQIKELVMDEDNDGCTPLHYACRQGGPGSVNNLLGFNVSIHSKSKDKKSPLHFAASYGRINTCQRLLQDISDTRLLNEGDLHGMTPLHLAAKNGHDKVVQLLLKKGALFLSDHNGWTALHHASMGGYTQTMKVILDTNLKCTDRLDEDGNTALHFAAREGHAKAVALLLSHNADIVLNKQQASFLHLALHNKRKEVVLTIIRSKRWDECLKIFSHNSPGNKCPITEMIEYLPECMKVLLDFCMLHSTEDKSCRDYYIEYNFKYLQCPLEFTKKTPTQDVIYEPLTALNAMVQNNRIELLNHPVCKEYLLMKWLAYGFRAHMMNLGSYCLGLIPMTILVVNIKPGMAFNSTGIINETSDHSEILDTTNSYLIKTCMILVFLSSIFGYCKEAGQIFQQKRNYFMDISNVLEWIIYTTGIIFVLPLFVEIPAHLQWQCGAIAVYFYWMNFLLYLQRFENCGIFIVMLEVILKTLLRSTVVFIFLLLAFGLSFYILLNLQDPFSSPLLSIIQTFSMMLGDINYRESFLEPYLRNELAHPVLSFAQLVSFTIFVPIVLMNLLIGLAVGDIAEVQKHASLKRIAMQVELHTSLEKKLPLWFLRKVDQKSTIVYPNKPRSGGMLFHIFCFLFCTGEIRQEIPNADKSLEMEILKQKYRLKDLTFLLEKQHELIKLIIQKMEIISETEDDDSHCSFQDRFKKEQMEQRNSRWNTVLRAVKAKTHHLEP

Structure (SMILES): O=C(NCc1cn(-c2ccc(C(F)(F)F)cc2)nc1C(F)F)[C@@H]1CC[C@@H]1S(=O)(=O)c1ccc(F)cc1 [Example 1, (1S,2S)-N-((3-(difluoromethyl)-1-(4-(trifluoromethyl)phenyl)-1H-pyrazol-4-yl)methyl)-2-(4-fluorophenylsulfonyl) cyclobutanecarboxamide]
IC50 (Table 3): 34.6 nM

Structure (SMILES): COc1nn(-c2ccc(C(F)F)cc2)cc1CC(=O)N[C@@H]1CC[C@@H]1S(=O)(=O)c1ccc(F)cc1 [Example 10, 2-(1-(4-(difluoromethyl)phenyl)-3-methoxy-1H-pyrazol-4-yl)-N-((1R,2S)-2-(4-fluorophenylsulfonyl)cyclobutyl) acetamide]
IC50 (Table 3): 43.6 nM

Structure (SMILES): O=C(NCc1cn(-c2ccc(C(F)(F)F)cc2)nc1C(F)F)C1CCC1S(=O)(=O)c1ccc(F)cc1 (single isomer, unassigned; enantiomer 2) [Example 18, N-((3-(difluoromethyl)-1-(4-(trifluoromethyl)phenyl)-1H-pyrazol-4-yl)methyl)-2-(4-fluorophenylsulfonyl) cyclobutanecarboxamide (Enantiomer 2)]
IC50 (Table 3): 96 nM

Structure (SMILES): O=C(NCc1cc(-c2ccc(C(F)(F)F)nc2)ncc1Cl)[C@@H]1CC[C@@H]1S(=O)(=O)c1ccc(F)cc1 [Example 15]
IC50 (Table 3): 140 nM

Structure (SMILES): O=C(NCc1ccc(F)c(-c2cnc(C(F)(F)F)nc2)c1)[C@@H]1CC[C@@H]1S(=O)(=O)c1ccc(F)cc1 [Example 19, (1S,2S)-2-(4-fluorophenyl)sulfonyl-N-[[4-fluoro-3-[2-(trifluoromethyl)pyrimidin-5-yl]phenyl]methyl] cyclobutanecarboxamide]
IC50 (Table 3): 159 nM

Structure (SMILES): O=C(NCc1cn(-c2ccc(C(F)(F)F)cc2)nc1C(F)F)[C@@H]1CC[C@@H]1S(=O)(=O)c1ccc(F)cc1 [Example 17, (1S,2S)-N-((3-(difluoromethyl)-1-(4-(trifluoromethyl)phenyl)-1H-pyrazol-4-yl)methyl)-2-(4-fluorophenylsulfonyl) cyclobutanecarboxamide]
IC50 (Table 3): 24.2 nM

Structure (SMILES): CC1(C(=O)NCc2cn(-c3ccc(C(F)(F)F)cc3)nc2Cl)CCCC1S(=O)(=O)c1ccc(F)cc1 (single isomer, unassigned; enantiomer 1) [Example 5, N-((3-chloro-1-(4-(trifluoromethyl)phenyl)-1H-pyrazol-4-yl)methyl)-2-(4-fluorophenylsulfonyl)-1-methylcyclopentanecarboxamide (Enantiomer 1)]
IC50 (Table 1): 8.79 nM | IC50 (Table 3): 8.79 nM

Structure (SMILES): O=C(Cc1cn(-c2cnc(C(F)(F)F)nc2)nc1C(F)(F)F)N[C@@H]1CC[C@@H]1S(=O)(=O)c1ccc(F)cc1 [Example 3, N-((1R,2S)-2-(4-fluorophenylsulfonyl)cyclobutyl)-2-(3-(trifluoromethyl)-1-(2-(trifluoromethyl)pyrimidin-5-yl)-1H-pyrazol-4-yl)acetamide]
IC50 (Table 1): 7.88 nM | IC50 (Table 3): 7.88 nM

Structure (SMILES): O=C(Cc1cn(-c2cnc(C(F)(F)F)nc2)nc1Cl)N[C@@H]1CC[C@@H]1S(=O)(=O)c1ccc(F)cc1 [Example 7, 2-(3-chloro-1-(2-(trifluoromethyl)pyrimidin-5-yl)-1H-pyrazol-4-yl)-N-((1R,2S)-2-(4-fluorophenylsulfonyl)cyclobutyl) acetamide]
IC50 (Table 1): 40.3 nM | IC50 (Table 3): 40.3 nM

Structure (SMILES): O=C(NCc1cn(-c2cnc(C(F)(F)F)nc2)nc1C(F)F)[C@@H]1CC[C@@H]1S(=O)(=O)c1ccc(F)cc1 [Example 16, (1S,2S)-N-((3-(difluoromethyl)-1-(2-(trifluoromethyl)pyrimidin-5-yl)-1H-pyrazol-4-yl)methyl)-2-(4-fluorophenylsulfonyl) cyclobutanecarboxamide]
IC50 (Table 3): 162 nM

Structure (SMILES): O=C(Cc1cn(-c2cnc(C(F)(F)F)nc2)nc1C(F)(F)F)N[C@@H]1CC[C@@H]1[S+]([O-])c1ccc(F)cc1 (stereo partly drawn) [Example 2, N-((1R,2S)-2-(4-fluorophenylsulfinyl)cyclobutyl)-2-(3-(trifluoromethyl)-1-(2-(trifluoromethyl)pyrimidin-5-yl)-1H-pyrazol-4-yl)acetamide]
IC50 (Table 3): 500 nM

Further lines, results first:

IC50 (Table 3): 199 nM
Structure (SMILES): COc1nn(-c2ccc(C(F)(F)F)nc2)cc1CNC(=O)C1(C)CCCC1S(=O)(=O)c1ccc(F)cc1 (single isomer, unassigned; enantiomer 2) [Example 35, 2-(4-fluorophenylsulfonyl)-N-((3-methoxy-1-(6-(trifluoromethyl)pyridin-3-yl)-1H-pyrazol-4-yl)methyl)-1-methylcyclopentanecarboxamide (Enantiomer 2)]

IC50 (Table 3): 65.8 nM
Structure (SMILES): O=C(NCc1cn(-c2ccc(C(F)(F)F)cc2)nc1Cl)C1CCC1S(=O)(=O)c1ccc(F)cc1 (single isomer, unassigned; enantiomer 2) [Example 29, N-((3-chloro-1-(4-(trifluoromethyl)phenyl)-1H-pyrazol-4-yl)methyl)-2-(4-fluorophenylsulfonyl) cyclobutanecarboxamide (Enantiomer 2)]

IC50 (Table 3): 113 nM
Structure (SMILES): O=C(NCc1cc(-c2ccc(C(F)(F)F)cc2)ncn1)[C@@H]1CC[C@@H]1S(=O)(=O)c1ccc(F)cc1 [Example 27, (1S,2S)-2-(4-fluorophenylsulfonyl)-N-((6-(4-(trifluoromethyl)phenyl)pyrimidin-4-yl)methyl)cyclobutanecarboxamide]

IC50 (Table 1): 39.2 nM | IC50 (Table 3): 39.2 nM
Structure (SMILES): CC1(C(=O)NCc2cn(-c3ccc(C(F)(F)F)nc3)nc2Cl)CCCC1S(=O)(=O)c1ccc(F)cc1 (single isomer, unassigned; enantiomer 1) [Example 31, N-((3-chloro-1-(6-(trifluoromethyl)pyridin-3-yl)-1H-pyrazol-4-yl)methyl)-2-(4-fluorophenylsulfonyl)-1-methylcyclopentanecarboxamide (Enantiomer 1)]

IC50 (Table 1): 38.9 nM | IC50 (Table 3): 38.9 nM
Structure (SMILES): O=C(NCc1cn(-c2ccc(C(F)(F)F)cc2)nc1Cl)[C@@H]1CCC[C@@H]1S(=O)(=O)c1ccc(F)cc1 [Example 43, (1S,2S)-N-((3-chloro-1-(4-(trifluoromethyl)phenyl)-1H-pyrazol-4-yl)methyl)-2-(4-fluorophenylsulfonyl) cyclopentanecarboxamide]

IC50 (Table 1): 45.5 nM | IC50 (Table 3): 45.5 nM
Structure (SMILES): O=C(NCc1cn(-c2ccc(C(F)(F)F)cc2)nc1Cl)C1CCCC1S(=O)(=O)c1ccc(F)cc1 (single isomer, unassigned; enantiomer 2) [Example 42, N-((3-chloro-1-(4-(trifluoromethyl)phenyl)-1H-pyrazol-4-yl)methyl)-2-(4-fluorophenylsulfonyl) cyclopentanecarboxamide (Enantiomer 2)]

IC50 (Table 1): 47.1 nM | IC50 (Table 3): 47.1 nM
Structure (SMILES): CC1(C(=O)NCc2cn(-c3ccc(C(F)(F)F)cc3)nc2Cl)CCCC1S(=O)(=O)c1ccc(F)cc1 (single isomer, unassigned; enantiomer 3) [Example 38, N-((3-chloro-1-(4-(trifluoromethyl)phenyl)-1H-pyrazol-4-yl)methyl)-2-(4-fluorophenylsulfonyl)-1-methylcyclopentanecarboxamide (Enantiomer 3)]
